PubChem BioAssay (NCI)
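Each compound was tested at five concentrations against cells in 96-well plates for 48 hours. At the GI50, growth is halved. TGI: total growth inhibition.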

Experiments:
Assay in all cases: DTP human tumour cell line panel, 48 h; in the data active = GI50 below about 0.43 µM; inactive = the rest
KM12 colon = tested on: KM12 colon
T-47D breast = tested on: T-47D breast
M14 melanoma = tested on: M14 melanoma
A498 renal = tested on: A498 renal
786-0 renal = tested on: 786-0 renal
OVCAR-8 ovarian = tested on: OVCAR-8 ovarian
HCT-116 colon = tested on: HCT-116 colon
HOP-62 NSCLC = tested on: HOP-62 NSCLC
SN12C renal = tested on: SN12C renal
SK-OV-3 ovarian = tested on: SK-OV-3 ovarian
MCF7 breast = tested on: MCF7 breast
U251 CNS = tested on: U251 CNS
UACC-62 melanoma = tested on: UACC-62 melanoma
A549 NSCLC = tested on: A549 NSCLC
SW-620 colon = tested on: SW-620 colon
SF-268 CNS = tested on: SF-268 CNS
NCI/ADR-RES ovarian = tested on: NCI/ADR-RES ovarian
SK-MEL-5 melanoma = tested on: SK-MEL-5 melanoma
SF-539 CNS = tested on: SF-539 CNS
HS 578T breast = tested on: HS 578T breast
ACHN renal = tested on: ACHN renal
HCC-2998 colon = tested on: HCC-2998 colon
NCI-H460 lung = tested on: NCI-H460 lung
NCI-H522 lung = tested on: NCI-H522 lung
CCRF-CEM leukemia = tested on: CCRF-CEM leukemia
TK-10 renal = tested on: TK-10 renal
DU-145 prostate = tested on: DU-145 prostate
SNB-19 CNS = tested on: SNB-19 CNS
OVCAR-4 ovarian = tested on: OVCAR-4 ovarian
RPMI-8226 leukemia = tested on: RPMI-8226 leukemia
HCT-15 colon = tested on: HCT-15 colon
NCI-H23 lung = tested on: NCI-H23 lung
UACC-257 melanoma = tested on: UACC-257 melanoma
BT-549 breast = tested on: BT-549 breast
OVCAR-5 ovarian = tested on: OVCAR-5 ovarian
SK-MEL-2 melanoma = tested on: SK-MEL-2 melanoma
SF-295 CNS = tested on: SF-295 CNS
NCI-H226 lung = tested on: NCI-H226 lung
HL-60(TB) leukemia = tested on: HL-60(TB) leukemia
RXF 393 renal = tested on: RXF 393 renal
CAKI-1 renal = tested on: CAKI-1 renal
UO-31 renal = tested on: UO-31 renal
HOP-92 NSCLC = tested on: HOP-92 NSCLC
SR leukemia = tested on: SR leukemia
SNB-75 CNS = tested on: SNB-75 CNS
MALME-3M melanoma = tested on: MALME-3M melanoma
OVCAR-3 ovarian = tested on: OVCAR-3 ovarian
LOX IMVI melanoma = tested on: LOX IMVI melanoma
MDA-MB-231 breast = tested on: MDA-MB-231 breast
COLO 205 colon = tested on: COLO 205 colon
PC-3 prostate = tested on: PC-3 prostate
MOLT-4 leukemia = tested on: MOLT-4 leukemia
EKVX NSCLC = tested on: EKVX NSCLC
IGROV1 ovarian = tested on: IGROV1 ovarian
HT29 colon = tested on: HT29 colon
MDA-MB-435 = tested on: MDA-MB-435

Cc1cc(C)c(S(=O)(=O)N2CCN(c3cc4c(cc3F)c(=O)c(C(=O)O)cn4C3CC3)CC2)c(C)c1
6.83 µM: TGI (RPMI-8226 leukemia)
> 100000 nM: TGI (KM12 colon) | TGI (786-0 renal) | TGI (HCT-116 colon) | TGI (SN12C renal) | TGI (U251 CNS) | TGI (UACC-62 melanoma) | TGI (A549 NSCLC) | TGI (SW-620 colon) | TGI (SF-539 CNS) | TGI (ACHN renal) | TGI (HCC-2998 colon) | TGI (NCI-H460 lung) | TGI (NCI-H522 lung) | TGI (HCT-15 colon) | TGI (BT-549 breast)
inactive: GI50 (KM12 colon) 3380 nM | GI50 (T-47D breast) 4.81 µM | GI50 (M14 melanoma) 4.69 µM | GI50 (A498 renal) 2370 nM | GI50 (786-0 renal) 4080 nM | GI50 (OVCAR-8 ovarian) 2870 nM | GI50 (HCT-116 colon) 2980 nM | GI50 (HOP-62 NSCLC) 3650 nM | GI50 (SN12C renal) 2610 nM | GI50 (SK-OV-3 ovarian) 3.02 µM | GI50 (MCF7 breast) 2590 nM | GI50 (U251 CNS) 2890 nM | GI50 (UACC-62 melanoma) 2430 nM | GI50 (A549 NSCLC) 2230 nM | GI50 (SW-620 colon) 3400 nM | GI50 (SF-268 CNS) 3960 nM | GI50 (NCI/ADR-RES ovarian) 3.29 µM | GI50 (SK-MEL-5 melanoma) 3030 nM | GI50 (SF-539 CNS) 3140 nM | GI50 (HS 578T breast) 2400 nM | GI50 (ACHN renal) 2460 nM | GI50 (HCC-2998 colon) 5.37 µM | GI50 (NCI-H460 lung) 3040 nM | GI50 (NCI-H522 lung) 2800 nM | GI50 (CCRF-CEM leukemia) 2800 nM | GI50 (TK-10 renal) 4570 nM | GI50 (DU-145 prostate) 3400 nM | GI50 (SNB-19 CNS) 2560 nM | GI50 (OVCAR-4 ovarian) 2.37 µM | GI50 (RPMI-8226 leukemia) 2340 nM | GI50 (HCT-15 colon) 2550 nM | GI50 (NCI-H23 lung) 3410 nM | GI50 (UACC-257 melanoma) > 100000 nM | GI50 (BT-549 breast) 3340 nM
> 100 µM: TGI (T-47D breast) | TGI (M14 melanoma) | TGI (A498 renal) | TGI (OVCAR-8 ovarian) | TGI (HOP-62 NSCLC) | TGI (SK-OV-3 ovarian) | TGI (MCF7 breast) | TGI (SF-268 CNS) | TGI (NCI/ADR-RES ovarian) | TGI (SK-MEL-5 melanoma) | TGI (CCRF-CEM leukemia) | TGI (TK-10 renal) | TGI (DU-145 prostate) | TGI (SNB-19 CNS) | TGI (OVCAR-4 ovarian) | TGI (NCI-H23 lung) | TGI (UACC-257 melanoma)
7.58 µM: TGI (HS 578T breast)

COc1ccc(NC(=O)c2sc3nc(C)c(C(=O)/C=C/c4ccccc4)cc3c2N)cc1
1940 nM: TGI (HT29 colon)
2500 nM: TGI (HL-60(TB) leukemia)
1870 nM: TGI (KM12 colon)
3.56 µM: TGI (UACC-257 melanoma)
2960 nM: TGI (MDA-MB-435)
2.74 µM: TGI (RPMI-8226 leukemia)
2080 nM: TGI (NCI-H460 lung)
1780 nM: TGI (HCT-116 colon)
2870 nM: TGI (NCI-H226 lung)
5.93 µM: TGI (SF-268 CNS)
1820 nM: TGI (CAKI-1 renal)
1740 nM: TGI (ACHN renal)
10.3 µM: TGI (M14 melanoma)
1670 nM: TGI (786-0 renal)
9.94 µM: TGI (CCRF-CEM leukemia)
4.37 µM: TGI (T-47D breast)
1680 nM: TGI (U251 CNS)
8.85 µM: TGI (EKVX NSCLC)
6.09 µM: TGI (NCI-H23 lung)
3.26 µM: TGI (OVCAR-5 ovarian)
1760 nM: TGI (HCC-2998 colon)
3.22 µM: TGI (A498 renal)
1610 nM: TGI (LOX IMVI melanoma)
6 µM: TGI (MCF7 breast)
3.53 µM: TGI (SNB-75 CNS)
2130 nM: TGI (A549 NSCLC)
3.89 µM: TGI (PC-3 prostate)
7.22 µM: TGI (SK-MEL-5 melanoma)
4 µM: TGI (SR leukemia)
3.16 µM: TGI (HOP-62 NSCLC)
inactive: GI50 (OVCAR-5 ovarian) 1110 nM | GI50 (KM12 colon) 897 nM | GI50 (T-47D breast) 1.25 µM | GI50 (SK-MEL-2 melanoma) 3.78 µM | GI50 (SF-295 CNS) 1870 nM | GI50 (M14 melanoma) 1.75 µM | GI50 (A498 renal) 890 nM | GI50 (786-0 renal) 821 nM | GI50 (OVCAR-8 ovarian) 1420 nM | GI50 (HCT-116 colon) 849 nM | GI50 (HOP-62 NSCLC) 1260 nM | GI50 (SN12C renal) 1100 nM | GI50 (SK-OV-3 ovarian) 3.33 µM | GI50 (NCI-H226 lung) 1110 nM | GI50 (MCF7 breast) 815 nM | GI50 (HL-60(TB) leukemia) 971 nM | GI50 (U251 CNS) 889 nM | GI50 (UACC-62 melanoma) 934 nM | GI50 (A549 NSCLC) 749 nM | GI50 (RXF 393 renal) 820 nM | GI50 (SW-620 colon) 966 nM | GI50 (CAKI-1 renal) 953 nM | GI50 (UO-31 renal) 748 nM | GI50 (HOP-92 NSCLC) 1390 nM | GI50 (SF-268 CNS) 1570 nM | GI50 (SR leukemia) 1070 nM | GI50 (SNB-75 CNS) 1220 nM | GI50 (MALME-3M melanoma) 1930 nM | GI50 (SK-MEL-5 melanoma) 2030 nM | GI50 (OVCAR-3 ovarian) 1090 nM | GI50 (SF-539 CNS) 951 nM | GI50 (LOX IMVI melanoma) 863 nM | GI50 (MDA-MB-231 breast) 1760 nM | GI50 (COLO 205 colon) 1430 nM | GI50 (HS 578T breast) 2050 nM | GI50 (PC-3 prostate) 1250 nM | GI50 (ACHN renal) 888 nM | GI50 (MOLT-4 leukemia) 1430 nM | GI50 (EKVX NSCLC) 1620 nM | GI50 (HCC-2998 colon) 0.901 µM | GI50 (NCI-H460 lung) 931 nM | GI50 (IGROV1 ovarian) 859 nM | GI50 (HT29 colon) 883 nM | GI50 (NCI-H522 lung) 943 nM | GI50 (CCRF-CEM leukemia) 1260 nM | GI50 (TK-10 renal) 1350 nM | GI50 (DU-145 prostate) 1300 nM | GI50 (SNB-19 CNS) 1300 nM | GI50 (OVCAR-4 ovarian) 4.43 µM | GI50 (RPMI-8226 leukemia) 860 nM | GI50 (HCT-15 colon) 892 nM | GI50 (NCI-H23 lung) 1570 nM | GI50 (MDA-MB-435) 1040 nM | GI50 (UACC-257 melanoma) 1190 nM | GI50 (BT-549 breast) 938 nM
2090 nM: TGI (IGROV1 ovarian)
12.7 µM: TGI (SK-OV-3 ovarian)
5.22 µM: TGI (OVCAR-8 ovarian)
17.5 µM: TGI (SK-MEL-2 melanoma)
2230 nM: TGI (BT-549 breast)
3.59 µM: TGI (TK-10 renal)
2070 nM: TGI (HCT-15 colon)
2850 nM: TGI (SN12C renal)
9.2 µM: TGI (SF-295 CNS)
2420 nM: TGI (NCI-H522 lung)
1960 nM: TGI (UACC-62 melanoma)
1620 nM: TGI (RXF 393 renal)
> 50 µM: TGI (HS 578T breast) | TGI (MOLT-4 leukemia) | TGI (OVCAR-4 ovarian)
4.02 µM: TGI (SNB-19 CNS)
6.65 µM: TGI (HOP-92 NSCLC)
2730 nM: TGI (OVCAR-3 ovarian)
2240 nM: TGI (SW-620 colon)
5.18 µM: TGI (COLO 205 colon)
1440 nM: TGI (UO-31 renal)
1840 nM: TGI (SF-539 CNS)
3.72 µM: TGI (DU-145 prostate)
12.6 µM: TGI (MDA-MB-231 breast)
21.6 µM: TGI (MALME-3M melanoma)
